Assay results from ChEMBL document CHEMBL1201862, “PubChem BioAssay data set” (2004).
Activity calls are given as the source filed them.

Experiments:
[1] = cells; type: functional, cell-based
[2] = Shn3 3'UTR reporter inhibitors, dose response, cell-based, Clone20 osteoblasts, firefly luciferase, cherry-picked (AID 624132); type: functional;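 further: firefly luciferase luminescence from reporter carrying the Shn3 3'UTR in osteoblasts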
[3] = test system: HEK293; test: cytotoxicity in HEK293T NF-kB-Luc cells, SAR follow-up, cytotoxicity control for NF-kB activator project, cell-based, resazurin fluorescence (AID 493251); type: functional; details: Homo sapiens
[4] = test system: Jurkat; test: SAR Analysis of small molecule inhibitors of T-cell specific antigen receptor-induced NF-kB activation in a Jurkat cell line using a luminescence assay - Set 2. [Related pubchem assays (depositor defined):AID435003, AID435012, AID465]; type: functional, cell-based; details: Homo sapiens
[5] = molecular target: T1, Apoptotic protease-activating factor 1 (Homo sapiens, UniProt O14727); type: functional
T1 sequence (O14727 whole entry): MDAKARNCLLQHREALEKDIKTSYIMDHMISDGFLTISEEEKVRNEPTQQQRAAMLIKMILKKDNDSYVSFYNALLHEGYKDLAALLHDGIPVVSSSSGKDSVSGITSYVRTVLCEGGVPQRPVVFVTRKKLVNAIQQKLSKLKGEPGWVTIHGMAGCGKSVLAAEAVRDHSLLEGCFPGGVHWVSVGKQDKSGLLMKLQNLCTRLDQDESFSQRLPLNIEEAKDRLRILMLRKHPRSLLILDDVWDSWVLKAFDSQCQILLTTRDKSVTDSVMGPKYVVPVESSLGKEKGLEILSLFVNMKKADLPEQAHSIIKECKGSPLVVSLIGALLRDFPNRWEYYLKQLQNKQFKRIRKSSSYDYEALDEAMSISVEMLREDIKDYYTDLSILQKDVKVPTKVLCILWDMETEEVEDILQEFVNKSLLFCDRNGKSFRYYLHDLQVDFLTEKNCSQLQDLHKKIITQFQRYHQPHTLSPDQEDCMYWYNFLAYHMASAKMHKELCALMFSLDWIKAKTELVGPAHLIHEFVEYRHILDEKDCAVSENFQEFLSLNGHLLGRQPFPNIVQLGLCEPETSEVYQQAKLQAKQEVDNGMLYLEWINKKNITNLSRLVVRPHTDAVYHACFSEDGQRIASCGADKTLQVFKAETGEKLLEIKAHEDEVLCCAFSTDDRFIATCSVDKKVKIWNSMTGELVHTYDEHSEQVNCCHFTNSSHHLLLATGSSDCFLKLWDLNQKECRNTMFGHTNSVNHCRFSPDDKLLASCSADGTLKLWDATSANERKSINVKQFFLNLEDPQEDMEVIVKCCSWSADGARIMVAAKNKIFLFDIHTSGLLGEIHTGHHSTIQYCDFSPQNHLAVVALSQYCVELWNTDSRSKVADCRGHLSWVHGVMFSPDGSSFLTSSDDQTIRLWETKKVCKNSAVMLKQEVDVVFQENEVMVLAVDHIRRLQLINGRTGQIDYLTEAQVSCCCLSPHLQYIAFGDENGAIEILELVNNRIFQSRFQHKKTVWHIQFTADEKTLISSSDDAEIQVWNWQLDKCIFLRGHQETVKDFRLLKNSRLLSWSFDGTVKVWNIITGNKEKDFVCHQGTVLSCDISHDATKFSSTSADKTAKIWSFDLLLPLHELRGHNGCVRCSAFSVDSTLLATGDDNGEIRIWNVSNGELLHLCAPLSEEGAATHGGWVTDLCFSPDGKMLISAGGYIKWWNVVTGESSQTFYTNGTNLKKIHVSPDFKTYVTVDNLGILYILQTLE

[6] = molecular target: Histone-lysine N-methyltransferase NSD2 (Homo sapiens, UniProt O96028); type: biochemical
Sequence of Histone-lysine N-methyltransferase NSD2 (O96028 whole entry): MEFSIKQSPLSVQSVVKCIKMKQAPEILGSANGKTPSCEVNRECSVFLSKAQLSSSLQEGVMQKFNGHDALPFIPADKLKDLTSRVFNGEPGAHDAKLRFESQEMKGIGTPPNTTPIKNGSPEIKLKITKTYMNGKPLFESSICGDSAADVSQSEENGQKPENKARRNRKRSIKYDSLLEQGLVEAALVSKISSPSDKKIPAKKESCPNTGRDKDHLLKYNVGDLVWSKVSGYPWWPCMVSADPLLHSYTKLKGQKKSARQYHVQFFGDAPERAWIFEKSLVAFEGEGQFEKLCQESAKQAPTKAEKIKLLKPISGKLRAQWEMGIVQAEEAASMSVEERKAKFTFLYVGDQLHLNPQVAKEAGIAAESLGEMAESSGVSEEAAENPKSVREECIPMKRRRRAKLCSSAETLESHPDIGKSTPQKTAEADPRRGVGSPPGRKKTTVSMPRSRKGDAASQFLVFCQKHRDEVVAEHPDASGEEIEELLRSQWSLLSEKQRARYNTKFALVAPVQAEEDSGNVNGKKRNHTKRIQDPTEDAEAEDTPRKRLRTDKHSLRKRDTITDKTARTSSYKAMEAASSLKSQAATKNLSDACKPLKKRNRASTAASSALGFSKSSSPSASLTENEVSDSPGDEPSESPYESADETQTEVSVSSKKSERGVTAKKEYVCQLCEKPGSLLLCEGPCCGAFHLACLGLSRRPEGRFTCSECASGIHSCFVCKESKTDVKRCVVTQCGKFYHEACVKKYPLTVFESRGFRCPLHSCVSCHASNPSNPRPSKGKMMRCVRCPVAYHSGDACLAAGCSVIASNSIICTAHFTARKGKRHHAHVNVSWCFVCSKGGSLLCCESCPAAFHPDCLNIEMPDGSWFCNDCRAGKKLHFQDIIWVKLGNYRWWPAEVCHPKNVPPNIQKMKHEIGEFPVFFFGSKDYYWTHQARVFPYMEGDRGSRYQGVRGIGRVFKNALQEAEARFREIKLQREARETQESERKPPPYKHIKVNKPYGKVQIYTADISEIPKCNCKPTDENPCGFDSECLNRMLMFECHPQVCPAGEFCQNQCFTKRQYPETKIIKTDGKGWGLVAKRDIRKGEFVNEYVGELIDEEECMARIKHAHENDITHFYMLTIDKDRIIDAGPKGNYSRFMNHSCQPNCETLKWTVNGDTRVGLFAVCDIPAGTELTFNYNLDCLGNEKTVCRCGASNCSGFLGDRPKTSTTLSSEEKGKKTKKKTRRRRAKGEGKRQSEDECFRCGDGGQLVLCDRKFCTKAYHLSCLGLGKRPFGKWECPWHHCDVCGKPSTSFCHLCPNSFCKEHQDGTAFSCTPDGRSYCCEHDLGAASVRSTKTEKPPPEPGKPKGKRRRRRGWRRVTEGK

[7] = test system: HEK293; test: optical interference in Abeta FP readout, dose response, artefact control for IDE activator project, biochemical, fluorescence polarization (AID 588442); type: functional, cell-based; details: Homo sapiens
[8] = molecular target: T2, Hexokinase-1 (Homo sapiens, UniProt P19367); test: HK1 enzyme inhibition by HKDC1 hits, SAR follow-up, selectivity assay for HKDC1 inhibitor project, biochemical, set 2, resazurin fluorescence coupled readout (AID 588356); type: functional
T2 sequence (P19367 whole entry): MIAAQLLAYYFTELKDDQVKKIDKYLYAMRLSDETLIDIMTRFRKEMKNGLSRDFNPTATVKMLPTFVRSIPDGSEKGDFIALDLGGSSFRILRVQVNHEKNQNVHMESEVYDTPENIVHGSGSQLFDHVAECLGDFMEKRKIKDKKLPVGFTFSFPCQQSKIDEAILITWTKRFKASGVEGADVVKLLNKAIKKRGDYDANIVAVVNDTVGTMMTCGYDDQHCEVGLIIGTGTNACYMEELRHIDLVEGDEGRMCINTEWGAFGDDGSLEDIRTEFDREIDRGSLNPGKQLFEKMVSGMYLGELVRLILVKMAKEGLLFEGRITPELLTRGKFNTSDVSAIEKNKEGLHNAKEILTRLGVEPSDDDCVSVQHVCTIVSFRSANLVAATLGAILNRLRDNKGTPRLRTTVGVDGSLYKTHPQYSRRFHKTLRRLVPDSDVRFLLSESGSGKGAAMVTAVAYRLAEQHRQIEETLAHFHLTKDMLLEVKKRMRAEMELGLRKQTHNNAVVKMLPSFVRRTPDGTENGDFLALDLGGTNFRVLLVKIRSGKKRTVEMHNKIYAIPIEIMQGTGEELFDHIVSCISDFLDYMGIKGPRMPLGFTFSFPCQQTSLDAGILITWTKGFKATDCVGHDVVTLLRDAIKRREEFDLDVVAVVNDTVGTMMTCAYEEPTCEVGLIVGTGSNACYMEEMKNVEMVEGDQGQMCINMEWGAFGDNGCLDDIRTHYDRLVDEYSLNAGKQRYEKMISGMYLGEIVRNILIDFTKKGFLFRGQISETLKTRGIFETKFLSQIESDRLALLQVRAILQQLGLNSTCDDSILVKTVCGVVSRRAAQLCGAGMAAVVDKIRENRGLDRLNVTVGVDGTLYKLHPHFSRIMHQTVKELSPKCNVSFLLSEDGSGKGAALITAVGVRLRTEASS

[9] = molecular target: T3, Caspase-3 (Homo sapiens, UniProt P42574); test: procaspase-3 activators, dose response, biochemical, absorbance (AID 489014)
T3 sequence (P42574 whole entry): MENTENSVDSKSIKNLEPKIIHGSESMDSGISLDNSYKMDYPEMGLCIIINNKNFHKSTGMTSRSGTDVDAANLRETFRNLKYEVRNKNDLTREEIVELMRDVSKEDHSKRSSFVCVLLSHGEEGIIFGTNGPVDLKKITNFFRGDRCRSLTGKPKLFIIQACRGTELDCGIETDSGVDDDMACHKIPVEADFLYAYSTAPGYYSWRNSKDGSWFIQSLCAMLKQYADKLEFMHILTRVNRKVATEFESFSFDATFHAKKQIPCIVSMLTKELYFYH

Q: What does the source list for `CCCCC(=O)NC(c1ccc(Cl)cc1)c1ccc2cccnc2c1O` (centres undefined)?
A: EC50 [1]: 59.9 µM (active); AC50 [2]: 772 nM (active); IC50 [3]: 23.3 µM (inactive); IC50 [4]: 5.28 µM (active)

Q: For `COc1ccc2noc3c2c1C(=O)c1ccccc1-3`, which IC50 [5] is on record?
A: 42.5 µM (active)

Q: What about the AC50 [6] of the same molecule?
A: > 20 µM (inactive)

Q: What about the EC50 [7] of the same molecule?
A: > 54.7 µM (inactive)

Q: Which IC50 [8] does the source give for `CCc1ccc2c(c1)C(NC(C)=O)C(=O)N2CCN1CCOCC1` (centres undefined) here?
A: > 80 µM (inactive)

Q: For `O=C(N/N=C/c1ccccc1O)/C(O)=C\C1=NC2(CCCC2)Cc2ccccc21`, which EC50 [9] is on record?
A: > 85.3 µM (inactive)
